Data as given in patent publication US9689042B2, “Use of glycolytic pathways for inhibiting or measuring oncogenic signaling” (The Regents of the University of California, priority 2012, dated 2017).
“Also recorded” adds a separate entry of the source. d = 2'-deoxy (DNA); r = 2'-OH (RNA)

Key:
[1] = tested on: T4-2 cells; settings: for rescue of the malignant (disorganized) phenotype by supplementation: T4-2 cells reverted by IA 20 μM or 1.75 mM glucose, PEP 0.5 mM, pyruvate; for rescue of the malignant (disorganized) phenotype by supplementation / phenotypic reversion of the malignant phenotype / basal polarity / organized acinar structures / growth / proliferation (cell numbers at the colony mid-section, EdU incorporation): 3D lrECM; for phenotypic reversion of the malignant phenotype: 2DG 4 mM, IA 20 μM, OX 50 mM, Azs 20 μM, DON 20 μM, BADGP 5 mM, TM 10 ng/ml, OGM 4 ng/ml, Rapa 0.01-1.0 μM; for basal polarity / organized acinar structures / growth / proliferation (cell numbers at the colony mid-section, EdU incorporation): same inhibitor concentrations as E1
Procedure: (§1) HMT-3522 cells were cultured on tissue culture plastic (2D) and in 3D lrECM gels with H14 medium, a 1:1 mix of DMEM/F12 (UCSF Cell Culture Facility) supplemented with 250 ng/ml insulin, 10 μg/ml transferrin, 2.6 ng/ml sodium selenite, 0.1 nM β-estradiol, 1.4 μM hydrocortisone and 5 μg/ml prolactin but no serum. S1 cells were additionally supplemented with 10 ng/ml EGF. MDA-MB-231 and HCC70 cells were cultured in DMEM and RPMI1640, respectively, and were supplemented with 10% fetal bovine serum (FBS).
(§2) For 3D lrECM cultures, S1 and T4-2 cells were seeded at 840,000 and 600,000 cells per cm3 respectively in lrECM gel (Cultrex), overlaid with H14 medium. MDA-MB-231 and HCC70 cells were seeded at 625,000 cell per cm3 and overlaid with H14 medium supplemented with 1% FBS. Cells were used for each assay after 10 days, unless otherwise indicated.
Pieces of lrECM gel containing cell colonies were suspended in approximately the same volume of phosphate buffered saline (PBS) and directly spread on glass slides. After brief air-drying, colonies were fixed with 3.7% paraformaldehyde (PFA) in PBS at room temperature (RT) for 10 min, washed with PBS containing 0.1 mM glycine, and permeabilized with 1:1 methanol/acetone at −20° C. for 10 min. After blocking with IF buffer (0.2% Triton X-100, 0.1% BSA [radioimmunoassay grade], 0.05% Tween 20, 7.7 mM NaN3 in PBS) containing 10% goat serum and 1% goat F(ab′)2 anti-mouse immunoglobulin G (IgG; Caltag) at RT for 30 min, colonies were stained with anti-α6 integrin antibody (Chemicon International) at 4° C. overnight. Colonies were washed extensively with IF buffer, and stained with Alexa 568-labeled anti-rat IgG antibody at RT for 2 hr. Colonies were washed with IF buffer again, and nuclei were stained with DAPI at RT for 10 min. Slides were briefly washed with PBS and mounted with 50% glycerol in PBS.
To test whether increased glucose metabolism itself is required for oncogenic signaling events, we utilized 3D lrECM cultures of HMT-3522, a breast cancer progression series which includes non-malignant (S1) and malignant (T4-2) human breast epithelial cells from the same individual (Briand et al., 1987; Petersen et al., 1992; Rizki et al., 2008). Using these cells, we have described the involvement and reciprocity of multiple signaling pathways including EGFR, β1 integrin, PI3K-Akt and MEK-ERK in oncogenic events (Beliveau et al., 2010; Bissell et al., 2005). […] We thus used this “phenotypic reversion” of the cancer cells as an assay to examine how the signaling integration plan of the breast acini could involve glucose metabolism.

[2] = tested on: Rap1; assay: Measurement of Rap1 activity (GST-RalGDS-RBD pull-down) in T4-2 cells; assay type: cell-based, human; settings: T4-2 cells treated with IA 20 μM or 1.75 mM glucose; PEP 0.5 mM, ESCA 20 μM
Procedure: Rap1 activity was measured as described previously (Itoh et al., 2007). Briefly, cell colonies were extracted from lrECM as described above, and lysed in lysis buffer (50 mM Tris-HCl [pH 7.4], 500 mM NaCl, 1% NP40, 2.5 mM MgCl2, 10% glycerol, 10 μg/ml aprotinin and 10 μg/ml leupeptin) at 4° C. for 30 min. Lysates were cleared by centrifugation at 15,000×g at 4° C. for 15 min. Supernatants (containing 300 μg protein in 300 μl) were incubated with 15 μg of GST-tagged RalGDS-RBD fusion protein immobilized on Glutathione Sepharose 4B beads (GE Healthcare), at 4° C. for 1 hr. Beads were washed trice in lysis buffer and resuspended in Laemmli buffer. Samples were separated by SDS-PAGE, followed by transfer to polyvinylidene fluoride membranes (0.2 μm pore) and immunoblotting using anti-Rap1 antibody.

[3] = tested on: EGFR, β1 integrin, Akt, MEK, GLUT3, glycolytic enzymes in T4-2 cells; assay: Western blots of signaling intermediates, GLUT3 and metabolic enzymes in 3D lrECM cultures of T4-2 cells; assay type: cell-based, human; settings: 3D lrECM; for recovery of β1 integrin expression and Akt activity by supplementation: T4-2 cells reverted by IA 20 μM or 1.75 mM glucose, PEP 0.5 mM, ESCA 20 μM
Procedure: Cell colonies were separated from lrECM gels by shaking in PBS containing 5 mM EDTA and the proteinase inhibitor cocktail set I (Calbiochem) on ice for 30 min. Cells were lysed in lysis buffer (1% NP-40, 1% deoxycholate, 2% SDS, 150 mM NaCl, 20 mM Tris-HCl [pH 7.4] plus 5 mM EDTA and protease inhibitor cocktail set I and phosphatase inhibitor cocktail set I [Calbiochem]) and sonicated three times for 30 sec each. Proteins were separated by SDS-PAGE, transferred to nitrocellulose membranes, and probed with antibodies against the following proteins: phosphorylated MEK, MEK, phosphorylated Akt, Akt, phosphorylated AMPK, AMPK, p70S6K, phosphorylated p70S6K, CHOP, EPAC1 (Cell Signaling), β1 integrin, EGFR, activated EGFR, HIF-1α, (Chemicon International), PFKP (Abgent), GAPDH, GLUT3 (GeneTex), LDHA, PDHE1α, DLAT, DLD, HIF-3α, Rap1, sAC, EPAC2, OGT, Lamin A/C (Santa Cruz Biotechnology), Aldolase (Polysciences), GFPT (ProteinTech Group), HIF-2α (Abcam), and HA-tag (Covance). After probing with HRP-conjugated secondary antibodies, blots were developed using SuperSignal West Femto chemiluminescence reagent (Pierce Biotechnology). Images were captured using Fluor Chem 8900 imager (Alpha Innotech).

[4] = tested on: T4-2 cells; assay: Mitochondrial activity (MitoTracker oxidation) assay in 3D lrECM; assay type: cell-based, human
Procedure: (§3) Cells suspended in 200 μl lrECM were seeded in 12 well glass-bottom plates (14 mm diameter; MatTek Corporation). Gels were overlaid with 500 μl H14 media and cultured for 10 days before each assay unless otherwise described.
For mitochondrial activity, we slightly modified the method described previously (Morici et al., 2007). Briefly, cells were incubated with 2 μM MitoTracker® Orange CM-H2 TMRos (Invitrogen) for 1 hour and fixed with PFA as above. Cells were counterstained with Hoechst 33342 (Invitrogen), which is known also to bind to DNA stoichiometrically, then MitoTracker and Hoechst staining were measured by taking z-section images from top to bottom of the gels using confocal microscopy.
(§4) In each assay, one well, containing only lrECM, was made for background measurements. Glucose uptake measured by 2DG uptake, lactate production and MitoTracker staining were normalized using total DNA levels, and presented relative to that of control (either S1 or non-treated T4-2 cells).

[5] = tested on: T4-2 cells; assay: Lactate production assay in 3D lrECM; assay type: cell-based, human
Procedure: as §3
For lactate production, on day 9, conditioned-media were harvested to measure lactate remaining in the 200 μl of the gel (assuming equilibrium between medium and gel, C0 nmol/μl). […] After 24 hours, total culture medium was harvested for measurement of final lactate concentrations (C nmol/μl) and total volumes (V μl) of the conditioned-media, and the cells in gel were fixed with PFA as above. Concentration of lactate in each sample was measured using a lactate assay kit (BioVision). Net lactate production within 24 hours (N) was calculated as follows: N=C×(V+200)−C0×200. Fixed cells were stained with DRAQ5, to measure total level of DNA as a surrogate for number of cells, and the staining was measured as above.
as §4

[6] = tested on: T4-2 cells; assay: Glucose uptake assay (IRDye800CW-2DG) in 3D lrECM; assay type: cell-based, human
Procedure: as §3
For glucose uptake assay, cells were incubated with 1 μM of IRDye800CW-2DG (LI-COR Biosciences) for 1 hour, fixed within gels with 4% paraformaldehyde (PFA) in PBS for 30 min. and stained with DRAQ5 (1:10000 dilution), an infrared dye that binds stoichiometrically to DNA, for 30 min. Cells were extensively washed with PBS, then IRDye800-2DG uptake together with DRAQ5 staining were measured by using Odyssey Infrared Imaging System (LI-COR Biosciences).
as §4

[7] = tested on: S1 cells; assay: 3D lrECM culture of non-malignant S1 cells: acinar morphology and growth; assay type: cell-based, human; settings: 2DG 4 mM, OGM 4 ng/ml
Procedure: as §1, §2
Pieces of lrECM gel containing cell colonies were suspended in approximately the same volume of phosphate buffered saline (PBS) and directly spread on glass slides. After brief air-drying, colonies were fixed with 3.7% paraformaldehyde (PFA) in PBS at room temperature (RT) for 10 min, washed with PBS containing 0.1 mM glycine, and permeabilized with 1:1 methanol/acetone at −20° C. for 10 min. […]

[8] = tested on: T4-2 cells; assay: siRNA knockdown in T4-2 cells cultured in 3D-on top (3D-OT) lrECM; assay type: cell-based, human; settings: 3 days
Procedure: For experiments that need to be done in shorter-term (e.g. cultures of siRNA-transfected cells or for live imaging), cells were seeded at 60,000 cells per cm2 on top (3D-OT) of lrECM gels overlaid with H14 medium containing 5% (v/v) lrECM. Cells were harvested after 3 days.
Predesigned siRNA duplexes targeting GLUT3, GFPT1, GFPT2 and OGT, as well as control siRNA were obtained from Ambion. The other siRNA duplexes were chemically synthesized and purchased from Hokkaido System Science. The sequences are as follows:
For transfection of each siRNA into T4-2 cells, Lipofectamine RNAi MAX (Invitrogen) was used, according to the manufacturer's instruction. Cells were trypsinized 36 hrs after transfection and cultured in 3D-OT lrECM for 3 days before harvest.

For `C=C(OP(=O)(O)O)C(=O)O` [PEP, phosphoenolpyruvate], the “rescue of the malignant (disorganized) phenotype by supplementation” value ([1]; ESCA 20 μM) was “reproduced the disorganized structure”, the “Rap1 reactivation by supplementation” value [2] was “Rap1 reactivation” and the “recovery of β1 integrin expression and Akt activity by supplementation” value [3] was “partially recovered”.
In the case of `[N-]=[N+]=CC(=O)OC[C@H](N)C(=O)O` [AZS, Azaserine], the “phenotypic reversion of the malignant phenotype” value ([1]; T4-2 cells) is reported as “do induce phenotypic reversion; also recorded: induced the repertoire of the reversion phenotype”, the “basal polarity / organized acinar structures” value ([1]; T4-2 cells) is reported as “re-establishment of tissue polarity” and the “growth / proliferation (cell numbers at the colony mid-section, EdU incorporation)” value ([1]; T4-2 cells) is reported as “growth arrest”. For the same compound, the “mitochondrial activity (oxidation)” value [4] was “remained unaltered”, the lactate production [5] was “significantly down-regulated” and the glucose uptake [6] was “significantly down-regulated”. The “levels and/or activities of EGFR, β1 integrin, Akt and MEK (oncogenic signaling)” value ([3]; T4-2 cells, Western blot) was “suppression of activation of oncogenic signaling” and the “EGFR expression and activity” value ([3]; T4-2 cells, Azs 20 μM, DON 20 μM) was “significantly down-regulated”.
For Tunicamycin [TM], the “phenotypic reversion of the malignant phenotype” value ([1]; T4-2 cells) was “do not induce phenotypic reversion; also recorded: did not lead to phenotypic reversion” and the cell death ([1]; T4-2 cells, increasing amounts of tunicamycin (data not shown)) was “induced significant cell death”.
`CC[C@H]1/C=C/C=C/C[C@@H](C)[C@H](O)[C@@](C)(O)C(=O)[C@@H](C)[C@H](O)[C@@H](C)C(=O)[C@@H](C)[C@H](O)[C@@H](C)/C=C/C(=O)O[C@@H]2[C@H](C)[C@H](CC1)O[C@]1(CC[C@H](C)[C@H](C[C@@H](C)O)O1)[C@H]2C` [OGM, Oligomycin] was tested, and the “phenotypic reversion of the malignant phenotype” value ([1]; T4-2 cells) was “do not induce phenotypic reversion”, the “basal polarity / organized acinar structures” value ([1]; T4-2 cells) was “did not induce organized structures” and the “growth / proliferation (cell numbers at the colony mid-section, EdU incorporation)” value ([1]; T4-2 cells) was “suppressing proliferation significantly”. For the same compound, the “acinar morphology, basal polarity and growth rate of non-malignant cells” value [7] was “lost basal tissue polarity”.
In the case of `CC(=O)N[C@H]1[C@@H](OCc2ccccc2)O[C@H](CO)[C@H](O)[C@@H]1O` [BADGP, Benzyl-2-acetamido-2-deoxy-α-D-galactopyranoside], the “phenotypic reversion of the malignant phenotype” value ([1]; T4-2 cells) is reported as “do induce phenotypic reversion; also recorded: induced phenotypic reversion”.
With “sAC siRNA: chemically synthesized siRNA duplex targeting sAC, SEQ ID NO: 7 and SEQ ID NO: 8 (chain 1 AUGUAGCCUGGAGAUCCAUTT; chain 2 AUGGAUCUCCAGGCUACAUTT; sugars from the 5' end r19 d2, backbone not given here)” the “phenotype after siRNA knockdown (reversion)” value [8] was “induced phenotypic reversion”.
With `CO[C@@H]1[C@@H]2OP(=O)(O)OC[C@H]2O[C@H]1n1c(Sc2ccc(Cl)cc2)nc2c(N)ncnc21` [ESCA, 8CPT-2′-OMe-cAMP] the “rescue of the malignant (disorganized) phenotype by supplementation” value ([1]; ESCA 20 μM) was “loss of tissue polarity”, the “restoration of proliferation by supplementation” value ([1]; T4-2 cells treated with IA 20 μM or 1.75 mM glucose, ESCA 20 μM) was “did not restore proliferation to the level of non-treated cultures” and the “Rap1 reactivation by supplementation” value [2] was “reactivated Rap1”. The “recovery of β1 integrin expression and Akt activity by supplementation” value [3] was “partially restored”.
“GAPDH siRNA: chemically synthesized siRNA duplex targeting GAPDH, SEQ ID NO: 1 and SEQ ID NO: 2 (chain 1 GAGCCACAUCGCUCAGACA; chain 2 UGUCUGAGCGAUGUGGCUC; listed as RNA, chemistry not fully specified)” was tested, and the “phenotype after siRNA knockdown (reversion)” value [8] was “essentially reproduced the above results”.
For `CC(Sc1nc2ccccc2[nH]1)C(=O)N/N=C/c1cc(Br)ccc1O` (centres unmarked) [KH7], the “reactivation (disorganization, Rap1, β1 integrin and Akt) on raising glucose from 1.75 mM to 5.5 mM” value ([1]; T4-2 cells reverted in 1.75 mM glucose, then 5.5 mM glucose with KH7) was “almost completely abolished” and the “phenotypic reversion of the malignant phenotype” value ([1]; T4-2 cells) was “do induce phenotypic reversion”.
